The values below are quoted from earlier work in paper PMC6959220, “Glycofullerenes as non-receptor tyrosine kinase inhibitors- towards better nanotherapeutics for pancreatic cancer treatment” (Scientific Reports, 2020).

In the data set the test system is NHDF. Further details: method as in PMID 30562697.

As to `Cc1nc(Nc2ncc(C(=O)Nc3c(C)cccc3Cl)s2)cc(N2CCN(CCO)CC2)n1` [Dasatinib, dasatinib], the “cytotoxic effects on a normal cell line” value is given as “cytotoxic effects”.
